According to patent publication US20180251431A1 (VERTEX PHARMACEUTICALS INCORPORATED, priority 2016, published 2018):

Tested on: HEK293 cells
Experiment: HEK293 VLCFA-LPC IC50 determination (13C-labeled C26:0 LPC by UHPLC/MS)
Format: cell-based, human
Settings: Homo sapiens, HEK293, 48 h, average of one or more replicates; 13C-labeled C26:0 LPC, 48 hours; read-out: Average HEK293 IC50
In short: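 Suspension HEK293 cells (final 0.5 million/mL after mixing with equal volume) incubated 48 hours with compound plus 13C-acetate (1.0 mg/mL in added media), shaking at 37° C. Lipids extracted with hexane/isopropanol or methanol, C13:0 LPC standard. UHPLC/MS of 13C-labeled C26:0 LPC (638.500/104.100 m/z); IC50 by four-parameter fit.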

| Compound | IC50 |
| --- | --- |
| COc1ncc(-n2ccc(NC(=O)C3(c4ccccc4F)CC3)n2)cc1Cl [Compound 378, N-(1-(5-chloro-6-methoxypyridin-3-yl)-1H-pyrazol-3-yl)-1-(2-fluorophenyl)cyclopropane-1-carboxamide] | 120 nM |
| COc1ccc(-n2ccc(NC(=O)C3(c4ccccc4F)CC3)n2)cc1F [Compound 322, N-[1-(3-fluoro-4-methoxy-phenyl)pyrazol-3-yl]-1-(2-fluorophenyl)cyclopropanecarboxamide] | 4000 nM |
| COc1cc(-n2ccc(NC(=O)C3(c4ccccc4F)CC3)n2)nc(C)n1 [Compound 359, 1-(2-fluorophenyl)-N-[1-(6-methoxy-2-methyl-pyrimidin-4-yl)pyrazol-3-yl]cyclopropanecarboxamide] | > 5000 nM |
| O=C(Nc1ccn(-c2cnns2)n1)C1(c2ccccc2F)CC1 [Compound 388, 1-(2-fluorophenyl)-N-[1-(thiadiazol-5-yl)pyrazol-3-yl]cyclopropanecarboxamide] | 37 nM |
| N#Cc1cc(F)cc(-n2ccc(NC(=O)C3(c4ccccc4F)CC3)n2)c1 [Compound 352, N-[1-(3-cyano-5-fluoro-phenyl)pyrazol-3-yl]-1-(2-fluorophenyl)cyclopropanecarboxamide] | > 5000 nM |
| O=C(Nc1nn(-c2cncc(F)c2)cc1F)C1(c2ccccc2)CC1 [Compound 445, N-[4-fluoro-1-(5-fluoro-3-pyridyl)pyrazol-3-yl]-1-phenyl-cyclopropanecarboxamide] | 1400 nM |
| O=C(Nc1ccn(-c2ccnc(C(F)(F)F)c2)n1)C1(c2ccccc2F)CC1 [Compound 324, 1-(2-fluorophenyl)-N-(1-(2-(trifluoromethyl)pyridin-4-yl)-1H-pyrazol-3-yl)cyclopropane-1-carboxamide] | > 5000 nM |

Same assay, conditions: Homo sapiens, HEK293, HEK293 cells; average of one or more replicates; read-out: Average HEK293 IC50

| Compound | IC50 |
| --- | --- |
| O=C(Cc1cc(F)cc(F)c1)Nc1ccn(-c2ccccc2)n1 [Compound 58, 2-(3,5-difluorophenyl)-N-(1-phenylpyrazol-3-yl)acetamide] | > 5000 nM |
| O=C(Nc1ccn(-c2ccccc2)n1)C1(c2ccc(F)cn2)CC1 [Compound 475, 1-(5-fluoro-2-pyridyl)-N-(1-phenylpyrazol-3-yl)cyclopropanecarboxamide] | 270 nM |
| O=C(Nc1ccn(-c2ccccc2)n1)C1(c2c(F)cccc2Cl)CC1 [Compound 275, 1-(2-chloro-6-fluoro-phenyl)-N-(1-phenylpyrazol-3-yl)cyclopropanecarboxamide] | 50 nM |
| CC[C@@H](C(=O)Nc1ccn(-c2ccccc2)n1)c1ccccc1 [Compound 28, (2R)-2-phenyl-N-(1-phenylpyrazol-3-yl)butanamide] | 580 nM |
| O=C(Cc1ccccc1F)Nc1ccn(-c2ccc(Cl)c(F)c2)n1 [Compound 195, N-[1-(4-chloro-3-fluoro-phenyl)pyrazol-3-yl]-2-(2-fluorophenyl)acetamide] | > 2000 nM |
| O=C(Nc1ccn(-c2cnoc2)n1)C1(c2ccccc2F)CC1 [Compound 424, 1-(2-fluorophenyl)-N-(1-(isoxazol-4-yl)-1H-pyrazol-3-yl)cyclopropane-1-carboxamide] | > 5000 nM |
| CC(C(=O)Nc1ccn(-c2ccccc2)n1)c1ccccc1 (stereo not shown) [Compound 80, 2-phenyl-N-(1-phenylpyrazol-3-yl)propanamide] | 47 nM |
| O=C(Nc1ccn(-c2ccncn2)n1)C1(c2ccccc2F)CC1 [Compound 206, 1-(2-fluorophenyl)-N-(1-pyrimidin-4-ylpyrazol-3-yl)cyclopropanecarboxamide] | 34 nM |
| COc1cc(-n2ccc(NC(=O)C3(c4ncccn4)CC3)n2)ccn1 [Compound 407, N-[1-(2-methoxy-4-pyridyl)pyrazol-3-yl]-1-pyrimidin-2-yl-cyclopropanecarboxamide] | > 5000 nM |
| O=C(Nc1ccn(-c2ccncc2)n1)C1(c2cnccn2)CC1 [Compound 495, 1-pyrazin-2-yl-N-[1-(4-pyridyl)pyrazol-3-yl]cyclopropanecarboxamide] | > 5000 nM |
| Cc1ccc(-n2ccc(NC(=O)C3(c4ccccc4)CC3)n2)cn1 [Compound 118, N-(1-(6-methylpyridin-3-yl)-1H-pyrazol-3-yl)-1-phenylcyclopropane-1-carboxamide] | 1300 nM |
| O=C(Nc1ccn(-c2ccnc(F)c2)n1)C1(c2ccc3c(c2)OC(F)(F)O3)CC1 [Compound 285, 1-(2,2-difluoro-1,3-benzodioxol-5-yl)-N-[1-(2-fluoro-4-pyridyl)pyrazol-3-yl]cyclopropanecarboxamide] | 40 nM |
| O=C(Nc1ccn(-c2ccccc2)n1)C1(c2cccs2)CC1 [Compound 474, N-(1-phenylpyrazol-3-yl)-1-(2-thienyl)cyclopropanecarboxamide] | 19 nM |
| CCOc1ccc(-n2ccc(NC(=O)C3(c4ccccc4F)CC3)n2)cn1 [Compound 430, N-[1-(6-ethoxy-3-pyridyl)pyrazol-3-yl]-1-(2-fluorophenyl)cyclopropanecarboxamide] | > 5000 nM |
| O=C(Cc1ccc(F)c(Cl)c1)Nc1ccn(-c2ccccc2)n1 [Compound 64, 2-(3-chloro-4-fluoro-phenyl)-N-(1-phenylpyrazol-3-yl)acetamide] | > 5000 nM |
| CCC1(C)CC1(C(=O)Nc1ccn(-c2ccccc2)n1)c1ccccc1 (stereo not shown) [Compound 166, 2-ethyl-2-methyl-1-phenyl-N-(1-phenylpyrazol-3-yl)cyclopropanecarboxamide] | 630 nM |
| O=C(Nc1ccn(-c2ccccc2)n1)C1(c2cc(F)cc(F)c2)CC1 [Compound 271, 1-(3,5-difluorophenyl)-N-(1-phenylpyrazol-3-yl)cyclopropanecarboxamide] | 650 nM |
| O=C(Nc1ccn(-c2ccnc(F)c2)n1)C1(c2cccc(Cl)c2)CC1 [Compound 256, 1-(3-chlorophenyl)-N-[1-(2-fluoro-4-pyridyl)pyrazol-3-yl]cyclopropanecarboxamide] | 300 nM |

| Compound | IC50 |
| --- | --- |
| O=C(Nc1ccn(-c2ccc(F)cc2)n1)C1(c2cnccn2)CC1 [Compound 494, N-[1-(4-fluorophenyl)pyrazol-3-yl]-1-pyrazin-2-yl-cyclopropanecarboxamide] | > 5000 nM |
| N#Cc1cccc(C2(C(=O)Nc3ccn(-c4ccnc(F)c4)n3)CC2)c1 [Compound 243, 1-(3-cyanophenyl)-N-[1-(2-fluoro-4-pyridyl)pyrazol-3-yl]cyclopropanecarboxamide] | 310 nM |
| COc1cc(-n2ccc(NC(=O)C3(c4ncccc4F)CC3(C)C)n2)ccn1 (stereo not shown) [Compound 519, 1-(3-fluoro-2-pyridyl)-N-[1-(2-methoxy-4-pyridyl)pyrazol-3-yl]-2,2-dimethyl-cyclopropanecarboxamide] | > 2000 nM |
| COc1cccc(-n2ccc(NC(=O)C3(c4ccccc4F)CC3)n2)n1 [Compound 502, 1-(2-fluorophenyl)-N-[1-(6-methoxy-2-pyridyl)pyrazol-3-yl]cyclopropanecarboxamide] | > 5000 nM |
| O=C(Nc1ccn(-c2cncc(F)c2)n1)C1(c2cccs2)CC1 [Compound 483, N-[1-(5-fluoro-3-pyridyl)pyrazol-3-yl]-1-(2-thienyl)cyclopropanecarboxamide] | < 20 nM |
| COc1ccc(C2(C(=O)Nc3ccn(-c4ccnc(F)c4)n3)CC2)cc1 [Compound 249, N-[1-(2-fluoro-4-pyridyl)pyrazol-3-yl]-1-(4-methoxyphenyl)cyclopropanecarboxamide] | 640 nM |
| O=C(Nc1ccn(-c2ccnc(F)c2)n1)C(c1ccccc1)C1CCCC1 (stereo not shown) [Compound 152, 2-cyclopentyl-N-[1-(2-fluoro-4-pyridyl)pyrazol-3-yl]-2-phenyl-acetamide] | 1700 nM |
| CSCC(C(=O)Nc1ccn(-c2ccccc2)n1)c1ccccc1 (stereo not shown) [Compound 170, 3-methylsulfanyl-2-phenyl-N-(1-phenylpyrazol-3-yl)propanamide] | > 5000 nM |
| O=C(Cc1c(F)cc(F)cc1F)Nc1ccn(-c2ccccc2)n1 [Compound 76, N-(1-phenylpyrazol-3-yl)-2-(2,4,6-trifluorophenyl)acetamide] | 72 nM |
| O=C(Cc1ccccc1)Nc1ccn(-c2ccccn2)n1 [Compound 86, 2-phenyl-N-[1-(2-pyridyl)pyrazol-3-yl]acetamide] | 680 nM |
| COc1ccc(CC(=O)Nc2ccn(-c3ccccc3)n2)cc1OC [Compound 66, 2-(3,4-dimethoxylphenyl)-N-(1-phenylpyrazol-3-yl)acetamide] | 2800 nM |
| Cc1cc(NC(=O)C2(c3ncccc3F)CC2C)nn1-c1ccc(F)cc1F (stereo not shown) [Compound 507, N-[1-(2,4-difluorophenyl)-5-methyl-pyrazol-3-yl]-1-(3-fluoro-2-pyridyl)-2-methyl-cyclopropanecarboxamide] | > 5000 nM |
| Cc1cccc(CC(=O)Nc2ccn(-c3ccccc3)n2)c1 [Compound 43, 2-(m-tolyl)-N-(1-phenylpyrazol-3-yl)acetamide] | 1900 nM |
| O=C(Nc1cc(F)n(-c2cncc(F)c2)n1)C1(c2ccccc2F)CC1 [Compound 463, N-[5-fluoro-1-(5-fluoro-3-pyridyl)pyrazol-3-yl]-1-(2-fluorophenyl)cyclopropanecarboxamide] | > 5000 nM |
| O=C(Cc1cc(F)cc(C(F)(F)F)c1)Nc1ccn(-c2ccccc2)n1 [Compound 72, 2-[3-fluoro-5-(trifluoromethyl)phenyl]-N-(1-phenylpyrazol-3-yl)acetamide] | > 5000 nM |
| Cc1cc(NC(=O)C2(c3ccccc3F)CC2)nn1-c1ccccc1 [Compound 386, 1-(2-fluorophenyl)-N-(5-methyl-1-phenyl-1H-pyrazol-3-yl)cyclopropane-1-carboxamide] | > 5000 nM |
| COc1cc(-n2ccc(NC(=O)C3(c4ccccc4F)CC3)n2)c(F)cn1 [Compound 467, N-[1-(5-fluoro-2-methoxy-4-pyridyl)pyrazol-3-yl]-1-(2-fluorophenyl)cyclopropanecarboxamide] | 2700 nM |
| Cc1cc(-n2ccc(NC(=O)Cc3ccccc3F)n2)ccn1 [Compound 110, 2-(2-fluorophenyl)-N-[1-(2-methyl-4-pyridyl)pyrazol-3-yl]acetamide] | > 10000 nM |
